Legend:
[1] = system: human AML leukemia initiating cells (LSCs); assay: Serial transplantation (limiting dilution) leukemia-initiating cell / LSC assay in secondary recipient mice; type: in vivo, human AML cells in NOD/SCID or NSG mice
Description: The threshold for engraftment detection was set at ≥0.1% human chimerism.

[2] = Treatment-related mortality on AraC dose intensification in AML-xenografted mice; type: in vivo, mouse; settings: AraC 100 mg/kg, 5 consecutive days
Description: This more aggressive regime produced unacceptable treatment-related mortality rates of 60%, which was not balanced by any therapeutic benefit in the few mice that survived.

human AML cells = assay: Flow cytometry of CD34/CD38 and LRC marker proteins (DRD2, SLC2A2, FASLG, FUT3) in human AML cells from xenograft BM; type: in vivo, human AML cells in mice
Method: Immunophenotyping for human hematopoietic cell surface markers was carried out using the following antibodies: V450-conjugated anti-CD45 (1:100; 2D1), APC-conjugated anti-CD33 (1:300; WM-33), PE-conjugated anti-CD34 (1:200; 581), FITC- or PE-conjugated anti-CD38 (1:100 or 1:500; HB7), FITC-conjugated anti-CD19 (1:100; HIB19), and APC-conjugated anti-CD3 (1:100; UCHT1; all from BD). In order to evaluate candidates from the LRC gene signature at the protein level, gene targets were identified with available commercial antibodies that had been validated for flow cytometry. Directly conjugated antibodies were used to detect human SLC2A2 (Alexa fluor 488-conjugated; 1:100; 199017; Novus Biologicals) and FASLG (FITC-conjugated; 1:100; SB93A; Thermo Fisher). Additionally, mouse anti-human primary antibodies that recognize human DRD2 (1:100; B-10; Santa Cruz) or FUT3 (1:100, F3, Thermo Fisher) were used, followed by incubation with an Alexa fluor 647- or 555-conjugated donkey anti-mouse secondary antibody ([…]; Thermo Fisher). In these cases of indirect staining, cells were first blocked with donkey serum (Jackson ImmunoResearch Laboratories) plus human FC block (eBioscience). […] When appropriate, fluorescence minus one and secondary antibody controls were used to optimize gating strategies for target cell populations. […]

[3] = system: healthy human hematopoietic cells (CD45+); assay: Healthy human hematopoietic chimerism and growth rate in xenografted mice; settings: healthy human grafts in mice
[4] = system: human AML cells (CD45+CD33+); assay: Leukemic chimerism and growth rate in BM of AML-xenografted mice (FACS, serial BM aspirates); settings: for Leukemic chimerism levels following DRD2 antagonist therapy: mean ± SEM
human AML progenitors = assay: CFU (methylcellulose) progenitor assay of human AML cells purified from treated xenograft BM

Nc1ccn([C@@H]2O[C@H](CO)[C@@H](O)[C@@H]2O)c(=O)n1 [AraC, Cytarabine]
functional LSCs (serial LIC transplantation) ([1]; AML xenografts, 48 hr after final AraC dose): suppressed | #Engrafted mice ([1]; AML#2, +AraC, cell dose 1 × 10^6, cells transplanted 48 hr after final AraC dose): 0/4 | #Engrafted mice ([1]; AML#2, +AraC, cell dose 2 × 10^5, cells transplanted 48 hr after final AraC dose): 0/4 | #Engrafted mice ([1]; AML#3, +AraC, cell dose 2 × 10^5, cells transplanted 48 hr after final AraC dose): 1/4 | #Engrafted mice ([1]; AML#3, +AraC, cell dose 3 × 10^4, cells transplanted 48 hr after final AraC dose): 0/3 | treatment-related mortality rate [2]: 60% | frequencies of primitive CD34+ and CD34+CD38− cells within residual AML populations (human AML cells; AraC 5 consecutive days, xenograft BM 24-72 hr after final dose): strongly reduced | re-growth rates of healthy human hematopoiesis after AraC cytoreduction [3]: rates matching those of vehicle-treated controls | recipient mice with persisting residual disease ([4]; AML patient #13 xenografts, AraC alone, 9 days after final AraC dose): 50% | leukemic growth after AraC vs vehicle-treated controls ([4]; AML xenografts, kinetic modeling of serial BM aspirates): accelerated leukemic growth | functional progenitors in residual leukemic populations (CFU) (human AML progenitors; AML xenografts, 48 hr after AraC withdrawal): depleted

CSc1ccc2c(c1)N(CCC1CCCCN1C)c1ccccc1S2 (stereo not shown) [DRD2 antagonist, thioridazine]
LIC content of therapy-naïve AML ([1]; DRD2 antagonist single agent, AML #5, serial transplantation): did not impact | LIC activity of AraC-exposed LRCs ([1]; DRD2 antagonist together with AraC, AML #5, serial transplantation 9 days post-AraC): complete loss of LIC activity | disease regeneration potential (secondary LIC assays and progenitor assays) ([1]; DRD2 antagonist with AraC, three additional AML patient samples): reproducibly blocked | DRD2 protein expression in human leukemic cells from xenograft BM (human AML cells; DRD2 antagonist with AraC, LRC stage): loss of DRD2 protein expression | time to overt relapse ([4]; AML #3 xenografts, AraC plus DRD2 antagonist vs AraC alone, relapse set at 20% leukemic chimerism, estimated from growth rates): nearly doubled | Leukemic chimerism levels following DRD2 antagonist therapy ([4]; AML #5, LRCs (in combination with AraC)): 1.4 ± 0.3 | Leukemic chimerism levels following DRD2 antagonist therapy ([4]; AML #5, Therapy-naive (single agent, no AraC)): 12.4 ± 2.2 | Leukemic chimerism levels following DRD2 antagonist therapy ([4]; AML #10, LRCs (in combination with AraC)): 16.9 ± 8.7 | Leukemic chimerism levels following DRD2 antagonist therapy ([4]; AML #11, LRCs (in combination with AraC)): 1.4 ± 1.4 | leukemic growth rates after AraC ([4]; AML Patient #3 xenografts, DRD2 antagonist plus AraC vs AraC alone): successfully disrupted | recipients achieving disease-free status ([4]; AML patient #13 xenografts, DRD2 antagonist added to AraC): 100% | overall cytoreductive activity of AraC (leukemic chimerism) ([4]; in vivo delivery of DRD2 antagonist with AraC): did not improve | effect on progenitors of regenerating LRCs (CFU) (human AML progenitors; DRD2 antagonist in combination with AraC, 9 days after last AraC dose): profound effects | effect on AML progenitors arising from therapy-naive LSCs (CFU) (human AML progenitors; DRD2 antagonist single agent, 21-day regimen, AML xenografts): moderately affected

From patent publication US20200080157A1, “PROGNOSIS AND TREATMENT OF RELAPSING LEUKEMIA” (McMaster University, priority 2018, published 2020)
